The values below come from ChEMBL document CHEMBL1146320, “Investigating biological activity spectrum for novel quinoline analogues” (Bioorg Med Chem, 2007).

By IC50 is commonly meant the concentration that inhibits the measured activity by half.

Activity calls are given as the source filed them. The rule behind the calls is not given here. A value given as a limit tells only on which side of the number the result lay.

Data set [1] can be described thus: Lipophilicity, log K of the compound. The note with it: octanol/water. Format: physicochemical.
The next data set concerns Chlorella vulgaris. Description: Inhibition of Chlorella vulgaris Beij assessed as reduction of chlorophyll content. Format: functional, organism-based.
Data set [2] can be described thus: (§1) Inhibition of photosynthesis in spinach chloroplast. Format: functional, Spinacia oleracea.
Another data set relates to SK-N-MC. Description: Antiproliferative activity against human SK-N-MC cells by MTT assay. In kind it is functional, cell-based.
A further data set deals with Spinacia oleracea. Described as §1. In kind it is functional.

For the molecule `Oc1cccc(/N=C/c2ccc3cccc(O)c3n2)c1`, the “log K” value in data set [1] worked out at 0.886. Also, the 50% inhibitory concentration (IC50) in the data set with Chlorella vulgaris was 168 µM.

For the molecule `Nc1cc(N)c2cccnc2c1O`, in data set [1], the “log K” value was 0.0522. In addition, the results for the IC50 (in data set [2]; in the data set on Chlorella vulgaris; in the data set on SK-N-MC) were 185 µM, 114 µM and more than 6.25 µM, respectively.

As for `O=C(O)c1ccc2nc(/C=C/c3ccccc3Cl)ccc2c1`, in data set [1], the “log K” value is 1.4787. The half-maximal inhibitory concentration (IC50) in data set [2] is 215 µM; in the data set on Chlorella vulgaris, 115 µM; in the data set with SK-N-MC, more than 6.25 µM.

Take `Cc1ccc2c(N)cc(N)c(O)c2n1`: the “log K” value in data set [1] is given as 0.2707. This molecule also gave an IC50 in data set [2] of 142 µM.

For `O=[N+]([O-])c1cc([N+](=O)[O-])c2cccnc2c1O`, the “log K” value in data set [1] is 0.7154. Further, the IC50 in data set [2] is 82 µM; in the data set on SK-N-MC, more than 6.25 µM.

With `Oc1ccccc1/N=C/c1ccc2cccc(O)c2n1`, in data set [1], the “log K” value is on record as 0.4308. Moreover, the concentration for half-maximal inhibition (IC50) with Chlorella vulgaris was 11 µM; in the data set on SK-N-MC it was more than 6.25 µM.

Consider `Oc1cccc2ccc(/C=C/c3cccc(Cl)c3)nc12`, for which the “log K” value in data set [1] worked out at 1.5395. Further, the half-inhibitory concentration (IC50) in data set [2] was 146 µM; in the data set with Chlorella vulgaris, 33 µM; in the data set on SK-N-MC, more than 6.25 µM.

With `O=C(O)c1cccc2nc(/C=C/c3ccc(Cl)cc3)ccc12`, the “log K” value in data set [1] was found to be 1.3976. The IC50 is 487 µM in data set [2], 96 µM with Chlorella vulgaris and more than 6.25 µM with SK-N-MC.

For `O=C(O)c1ccc(C(=O)O)c2nc(/C=C/c3cccc(Br)c3)ccc12`, the “log K” value in data set [1] turned out to be 1.2171.

In data set [2], `CN(C)C(=O)Nc1ccc(Cl)c(Cl)c1` [DCMU] came in with an IC50 of 1.9 µM.

Turning to `Oc1cccc2ccc(/C=C/c3ccc(Cl)cc3)nc12`, the “log K” value in data set [1] stood at 1.5558. For the same molecule, the concentration for half-maximal inhibition (IC50) in data set [2] was found to be 448 µM; in the data set with SK-N-MC, 0.77 µM.

Turning to `Cc1ccc2c([N+](=O)[O-])cc([N+](=O)[O-])c(O)c2n1`, the “log K” value in data set [1] amounted to 0.7292. In addition, the IC50 was 26 µM in data set [2], 95 µM with Chlorella vulgaris and more than 6.25 µM in the data set on SK-N-MC.

As for `Oc1cccc2ccc(/C=C/c3ccc(Br)cc3)nc12`, the “log K” value in data set [1] stood at 1.5802. In addition, the half-inhibitory concentration (IC50) in data set [2] was 135 µM; in the data set on SK-N-MC, more than 6.25 µM.

On to `Cc1ccc2c(C(=O)O)cccc2n1`, for which, in data set [1], the “log K” value is reported as 0.3629. The IC50 in data set [2] was 146 µM; with SK-N-MC, more than 6.25 µM.

Regarding `Oc1ccc(/N=C/c2ccc3cccc(O)c3n2)cc1`, the “log K” value in data set [1] is 1.0911. The IC50 in the data set with Chlorella vulgaris amounted to 17 µM.

Take `COc1ccccc1/C=C/c1ccc2cccc(C(=O)O)c2n1`: the “log K” value in data set [1] was 1.1922.

In the data set on SK-N-MC, `NC(=S)N/N=C/c1ncccc1N` [TRIAPINE] registered an IC50 of 0.31 µM.

As for `Cc1nc2ccccc2c(=O)[nH]1`, the “log K” value in data set [1] amounted to 0.1515. Besides, the result with Spinacia oleracea and in the data set with Chlorella vulgaris was inactive. The molecule also had a half-inhibitory concentration (IC50) with SK-N-MC of more than 6.25 µM.

Consider `O=C(O)c1ccc2ccc(/C=C/c3cccc(Cl)c3)nc2c1`, for which the “log K” value in data set [1] came out at 1.2858. This molecule yielded an IC50 in the data set with SK-N-MC of more than 6.25 µM.
